Experimental data: patent US20030078251A1, “Benzoxazepinones and their use as squalene synthase inhibitors” (priority 2000, published 2003)

SMILES	melting point [°C]
COc1cccc([C@H]2O[C@H](CC(=O)NS(=O)(=O)CCCO)C(=O)N(CC(C)(C)CO)c3ccc(Cl)cc32)c1OC [Example 6, (3R,5S)-N-(3-hydroxypropyl)sulfonyl-7-chloro-5-(2,3-dimethoxyphenyl)-1-(3-hydroxy-2,2-dimethylpropyl)-2-oxo-1,2,3,5-tetrahydro-4,1-benzoxazepine-3-acetamide]	133 to 135
COc1cccc([C@H]2O[C@H](CC(=O)N[C@H](CCSC)C(=O)O)C(=O)N(CC(C)(C)CO)c3ccc(Cl)cc32)c1OC [Example 16, N-[[(3R,5S)-7-chloro-5-(2,3-dimethoxyphenyl)-1-(3-hydroxy-2,2-dimethylpropyl)-2-oxo-1,2,3,5-tetrahydro-4,1-benzoxazepin-3-yl]acetyl]-D-methionine]	142 to 143
COc1cccc([C@H]2O[C@H](CC(=O)NCCc3oc(C(=O)O)cc3C(=O)O)C(=O)N(CC(C)(C)CO)c3ccc(Cl)cc32)c1OC [Example 28, 5-[2-[[[(3R,5S)-7-chloro-5-(2,3-dimethoxyphenyl)-1(2,2-dimethyl-3-hydroxypropyl)-2-oxo-1,2,3,5-tetrahydro-4,1-benzoxazepin-3-yl]acetyl]amino]ethyl]furan-2,4-dicarboxylic acid]	155 to 157
COc1cccc([C@H]2O[C@H](CC(=O)Nc3ccc(CC(=O)O)cc3)C(=O)N(CC(C)(C)CO)c3ccc(Cl)cc32)c1OC [Example 31, 4-[[(3R,5S)-7-chloro-5-(2,3-dimethoxyphenyl)-1-(3-hydroxy-2,2-dimethylpropyl)-2-oxo-1,2,3,5-tetrahydro-4,1-benzoxazepin-3-yl]acetyl]aminophenylacetic acid]	142 to 144
COc1cccc([C@H]2O[C@H](CC(=O)Nc3cccc(C(=O)O)c3C)C(=O)N(CC(C)(C)COC(C)=O)c3ccc(Cl)cc32)c1OC [Example 44, 3-[[[(3R,5S)-1-(3-acetoxy-2,2-dimethylpropyl)-7-chloro-5-(2,3-dimethoxyphenyl)-2-oxo-1,2,3,5-tetrahydro-4,1-benzoxazepin-3-yl]acetyl]amino]-2-metylbenzoic acid]	139 to 142
CCOc1ccc(CCC(=O)O)cc1NC(=O)C[C@H]1O[C@H](c2cccc(OC)c2OC)c2cc(Cl)ccc2N(CC(C)(C)CO)C1=O [Example 49, 3-[3-[[[(3R,5S)-7-chloro-5-(2,3-dimethoxyphenyl)-1-(3-hydroxy-2,2-dimethylpropyl)-2-oxo-1,2,3,5-tetrahydro-4,1-benzoxazepin-3-yl]acetyl]amino]-4-ethoxyphenyl]propionic Acid]	151 to 153
CCOc1ccc(CCC(=O)O)cc1NC(=O)C[C@H]1O[C@H](c2cccc(OC)c2OC)c2cc(Cl)ccc2N(CC(C)(C)COC(C)=O)C1=O [Example 50, 3-[3-[[[(3R,5S)-1-(3-acetoxy-2,2-dimethylpropyl)-7-chloro-5-(2,3-dimethoxyphenyl)-2-oxo-1,2,3,5-tetrahydro-4,1-benzoxazepin-3-yl]acetyl]amino]-4-ethoxyphenyl]propionic Acid]	175 to 176
COc1cccc([C@H]2O[C@H](CC(=O)Nc3cc(CCC(=O)O)ccc3OC(C)C)C(=O)N(CC(C)(C)COC(C)=O)c3ccc(Cl)cc32)c1OC [Example 52, 3-[3-[[[(3R,5S)-1-(3-acetoxy-2,2-dimethylpropyl)-7-chloro-5-(2,3-dimethoxyphenyl)-2-oxo-1,2,3,5-tetrahydro-4,1-benzoxazepin-3-yl]acetyl]amino]-4-isopropoxyphenyl]propionic Acid]	101 to 103
COc1cccc([C@H]2O[C@H](CC(=O)Nc3ccc(CCCC(=O)O)cc3)C(=O)N(CC(C)(C)CO)c3ccc(Cl)cc32)c1OC [Example 68, 4-[4-[[[(3R,5S)-7-chloro-5-(2,3-dimethoxyphenyl)-1-(3-hydroxy-2,2-dimethylpropyl)-2-oxo-1,2,3,5-tetrahydro-4,1-benzoxazepin-3-yl]acetyl]amino]phenyl]butanoic acid]	194 to 195
COc1cccc([C@H]2O[C@H](CC(=O)NCCCC(=O)O)C(=O)N(CC(C)(C)C)c3ccc(Cl)cc32)c1OC [Example 70, 4-[[(3R,5S)-7-chloro-5-(2,3-dimethoxyphenyl)-1-neopentyl-2-oxo-1,2,3,5-tetrahydro-4,1-benzoxazepin-3-yl]acetyl]aminobutanoic acid]	128 to 130
COc1cccc([C@H]2O[C@H](CC(=O)NCCc3ccc(OC(C)(C)C(=O)O)cc3)C(=O)N(CC(C)(C)CO)c3ccc(Cl)cc32)c1OC [Example 77, α-[4-[2-[[(3R,5S)-7-Chloro-5-(2,3-dimethoxyphenyl)-1-(3-hydroxy-2,2-dimethylpropyl)-2-oxo-1,2,3,5-tetrahydro-4,1-benzoxazepin-3-yl]acetyl]aminoethyl]phenyloxy]isobutanoic acid]	209 to 211
COc1cccc([C@H]2O[C@H](CC(=O)NCCCOc3ccc(CC(=O)O)cc3)C(=O)N(CC(C)(C)COC(C)=O)c3ccc(Cl)cc32)c1OC [Example 97, 4-[3-[[(3R,5S)-1-(3-Acetoxy-2,2-dimethylpropyl)-7-chloro-5-(2,3-dimethoxyphenyl)-2-oxo-1,2,3,5-tetrahydro-4,1-benzoxazepin-3-yl]acetyl]aminopropyloxy]phenylacetic acid]	163 to 164
COc1cccc([C@H]2O[C@H](CC(=O)NCCCOc3ccc(C(=O)O)cc3)C(=O)N(CC(C)(C)CO)c3ccc(Cl)cc32)c1OC [Example 98]	138 to 139

Results, then the molecule that gave them:

melting point [°C]	SMILES
123 to 125	CCCCS(=O)(=O)NC(=O)C[C@H]1O[C@H](c2cccc(OC)c2OC)c2cc(Cl)ccc2N(CC(C)(C)CO)C1=O [Example 4, (3R,5S)-N-butanesulfonyl-7-chloro-5-(2,3-dimethoxyphenyl)-1-(3-hydroxy-2,2-dimethylpropyl)-2-oxo-1,2,3,5-tetrahydro-4,1-benzoxazepine-3-acetamide]
128 to 131	COc1cccc([C@H]2O[C@H](CC(=O)NCc3ccc(C(=O)O)o3)C(=O)N(CC(C)(C)CO)c3ccc(Cl)cc32)c1OC [Example 29, 5-[[[[(3R,5S)-7-chloro-5-(2,3-dimethoxyphenyl)-1-(2,2-dimethyl-3-hydroxypropyl)-2-oxo-1,2,3,5-tetrahydro-4,1-benzoxazepin-3-yl]acetyl]amino]methyl]furan-2-carboxylic acid]
165 to 168	COc1cccc([C@H]2O[C@H](CC(=O)Nc3cccc(C(=O)O)c3C)C(=O)N(CC(C)(C)CO)c3ccc(Cl)cc32)c1OC [Example 43, 3-[[[(3R,5S)-7-chloro-5-(2,3-dimethoxyphenyl)-1-(3-hydoroxy-2-dimethylpropyl)-2-oxo-1,2,3,5-tetrahydro-4,1-benzoxazepin-3-yl]acetyl]amino]-2-methylbenzoic acid]
275 to 276	COc1cccc([C@H]2O[C@H](CC(=O)Nc3ccc(C(=O)O)cc3C)C(=O)N(CC(C)(C)CO)c3ccc(Cl)cc32)c1OC [Example 48, 4-[[(3R,5S)-7-chloro-5-(2,3-dimethoxyphenyl)-1-(3-hydroxy-2,2-dimethylpropyl)-2-oxo-1,2,3,5-tetrahydro-4,1-benzoxazepin-3-yl]acetyl]amino-3-methylbenzoic acid]
133 to 136	COc1cccc([C@H]2O[C@H](CC(=O)Nc3cc(CCC(=O)O)ccc3OC(C)C)C(=O)N(CC(C)(C)CO)c3ccc(Cl)cc32)c1OC [Example 51, 3-[3-[[[(3R,5S)-7-chloro-5-(2,3-dimethoxyphenyl)-1-(3-hydroxy-2,2-dimethylpropyl)-2-oxo-1,2,3,5-tetrahydro-4,1-benzoxazepin-3-yl]acetyl]amino]-4-isopropoxyphenyl]propionic Acid]
145 to 148	COc1cc(CCC(=O)O)cc(NC(=O)C[C@H]2O[C@H](c3cccc(OC)c3OC)c3cc(Cl)ccc3N(CC(C)(C)CO)C2=O)c1OC [Example 66, 3-[5-[[[(3R,5S)-7-chloro-5-(2,3-dimethoxyphenyl)-1-(3-hydroxy-2,2-dimethylpropyl)-2-oxo-1,2,3,5-tetrahydro-4,1-benzoxazepin-3-yl]acetyl]amino]-3,4-dimethoxyphenyl]propionic Acid]
143 to 144	COc1cccc([C@H]2O[C@H](CC(=O)NCc3ccc(C(=O)O)cc3)C(=O)N(CC(C)(C)CO)c3ccc(Cl)cc32)c1OC [Example 75, 4-[[(3R,5S)-7-Chloro-5-(2,3-dimethoxyphenyl)-1-(3-hydroxy-2,2-dimethylpropyl)-2-oxo-1,2,3,5-tetrahydro-4,1-benzoxazepin-3-yl]acetyl]aminomethylbenzoic acid]
171 to 172	COc1cccc([C@H]2O[C@H](CC(=O)Nc3ccc4oc(C(=O)O)cc4c3)C(=O)N(CC(C)(C)CO)c3ccc(Cl)cc32)c1OC [Example 81, 5-[[[(3R,5S)-7-Chloro-5-(2,3-dimethoxyphenyl)-1-(3-hydroxy-2,2-dimethylpropyl)-2-oxo-1,2,3,5-tetrahydro-4,1-benzoxazepin-3-yl]acetyl]amino]benzofuran-2-carboxylic acid]
155 to 158	COc1cccc([C@H]2O[C@H](CC(=O)Nc3ccc(C(=O)O)o3)C(=O)N(CC(C)(C)CO)c3ccc(Cl)cc32)c1OC [Example 94, 5-[[(3R,5S)-7-Chloro-5-(2,3-dimethoxyphenyl)-1-(3-hydroxy-2,2-dimethylpropyl)-2-oxo-1,2,3,5-tetrahydro-4,1-benzoxazepin-3-yl]acetyl]amino-2-furancarboxylic acid]
125 to 128	COc1cccc([C@H]2O[C@H](CC(=O)NCCCOc3ccc(CC(=O)O)cc3)C(=O)N(CC(C)(C)CO)c3ccc(Cl)cc32)c1OC [Example 96, 4-[3-[[(3R,5S)-7-Chloro-5-(2,3-dimethoxyphenyl)-1-(3-hydroxy-2,2-dimethylpropyl)-2-oxo-1,2,3,5-tetrahydro-4,1-benzoxazepin-3-yl]acetyl]aminopropyloxy]phenylacetic acid]
132 to 134	COc1cccc([C@H]2O[C@H](CC(=O)NCCCOc3cccc(C(=O)O)c3)C(=O)N(CC(C)(C)CO)c3ccc(Cl)cc32)c1OC [Example 100, 3-[3-[[(3R,5S)-7-Chloro-5-(2,3-dimethoxyphenyl)-1-(3-hydroxy-2,2-dimethylpropyl)-2-oxo-1,2,3,5-tetrahydro-4,1-benzoxazepin-3-yl]acetyl]aminopropyloxy]benzoic acid]
